Source: PubChem BioAssay (NCI)
Values joined by “and” are separate entries in the source; they are usually repeats but may differ in a detail not shown here. Equal entries are not always repeated.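 Five compound concentrations were applied to cells in 96-well plates for 48 hours; endpoints were derived by simple linear interpolation of the resulting dose-response curve. GI50 = concentration required for 50% inhibition of growth. TGI: total growth inhibition.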

Key:
Assay in all cases: NCI-60 cell line screen, 48 h
M14 melanoma = system: M14 melanoma
MCF7 breast = system: MCF7 breast
NCI-H460 lung = system: NCI-H460 lung
NCI-H23 lung = system: NCI-H23 lung
UO-31 renal = system: UO-31 renal
NCI/ADR-RES ovarian = system: NCI/ADR-RES ovarian
CCRF-CEM leukemia = system: CCRF-CEM leukemia
BT-549 breast = system: BT-549 breast

Row | Structure (SMILES) | GI50 (M14 melanoma) | TGI (M14 melanoma) | GI50 (MCF7 breast) | TGI (MCF7 breast) | GI50 (NCI-H460 lung) | TGI (NCI-H460 lung) | GI50 (NCI-H23 lung) | TGI (NCI-H23 lung) | GI50 (UO-31 renal) | TGI (UO-31 renal) | GI50 (NCI/ADR-RES ovarian) | TGI (NCI/ADR-RES ovarian) | GI50 (CCRF-CEM leukemia) | TGI (CCRF-CEM leukemia) | GI50 (BT-549 breast) | TGI (BT-549 breast)
1 | CCNCCNc1cc(-c2ccc(C(F)(F)F)cc2)c(C#N)c2nc3cc(Cl)c(Cl)cc3n12 | 1.59 µM | 3.12 µM | 0.168 µM | 0.352 µM | 1.66 µM | 3.27 µM | 1.77 µM | 3.52 µM | 1.65 µM | 3.25 µM | 1.49 µM | 3.33 µM |  |  |  | 
2 | Cc1sc2c(c1C)C(c1ccc(Cl)cc1)=N[C@@H](CC(=O)NCCCN1CCN(C)CC1)c1nnc(C)n1-2 | 1.24 µM | > 100 µM | 0.0564 µM | > 100 µM | > 63.2 µM | > 100 µM | 5.67 µM | > 100 µM | 3.83 µM | > 100 µM | > 100 µM | > 100 µM | 1.6 µM | > 100 µM | 3.51 µM | > 100 µM
3 | C=CC(=O)Nc1cccc(Oc2nc(Nc3ccc(N4CCN(C)CC4)cc3OC)ncc2Cl)c1 | 1.82 µM | 3.47 µM |  |  | 3.49 µM | > 34.4 µM | 3.92 µM | 23.7 µM | 1.03 µM | 2.32 µM | 1.88 µM | 5.69 µM | 3.17 µM | > 26.3 µM | 1.99 µM | 4.58 µM
4 | Nc1ncn([C@H]2C[C@H](OP(=O)(O)OC[C@H]3O[C@@H](n4cnc5c(=O)[nH]c(N)nc54)C[C@@H]3O)[C@@H](CO)O2)c(=O)n1 | > 100 µM | > 100 µM | 51.9 µM | > 100 µM | 7.44 µM | > 100 µM | > 100 µM | > 100 µM | > 100 µM | > 100 µM | > 100 µM | > 100 µM | 9.01 µM | > 100 µM | > 100 µM | > 100 µM
5 | O=[N+]([O-])c1oc2ccc3ccccc3c2c1CCO |  | 5.24 µM |  | 29.5 µM |  | 0.819 µM |  | 17 µM |  | 3.89 µM |  | 30.1 µM |  | 39.9 µM |  | 8.71 µM
6 | COc1ccc(Cn2cc3c(c2-c2cc(OC)c(OC)c(OC)c2)CCc2c(CO)noc2-3)cc1 | 0.215 µM | 2.88 µM | 0.176 µM | 17.8 µM | 0.341 µM | 13.6 µM | 0.612 µM | 42.1 µM | 0.639 µM | 22.4 µM | 0.294 µM | > 57 µM | 0.347 µM | 23.7 µM | 0.608 µM | 7.34 µM
7 | CC(C)C(=O)c1c(C(F)(F)F)n([O-])c2ccccc2[n+]1=O | 1.74 µM | 3.76 µM | 0.731 µM | 6.06 µM | 1.72 µM | 5.56 µM | 1.67 µM | 3.41 µM | 1.18 µM | 3.11 µM | 1.74 µM | 5.46 µM | 1.57 µM | 9.83 µM | 1.06 µM | 3.08 µM
8 | Cc1ccccc1C(C(=O)NC1CCCCC1)N(C(=O)CNc1ncccc1F)c1cccc(F)c1 (centres undefined) | > 100 µM | > 100 µM | > 100 µM | > 100 µM | > 100 µM | > 100 µM | > 57.8 µM | > 100 µM | > 100 µM | > 100 µM | > 100 µM | > 100 µM | > 100 µM | > 100 µM | > 58.4 µM | > 100 µM
9 | CN1CCN(CCCN2c3ccccc3Sc3ccc(Cl)cc32)CC1 |  |  | 5.79 µM and 47.1 µM | 14 µM and 63 µM |  | 11.4 µM and 80.5 µM |  | 12 µM |  | 9.49 µM | 6 µM and 44.5 µM | 12.8 µM and 78.6 µM | 6.46 µM | 15.1 µM | 6.56 µM | 13.4 µM
10 | O=C1NC(=NCCc2ccccn2)S/C1=C\c1ccc2ncccc2c1 | 12.7 µM | > 25 µM | 10.5 µM | > 25 µM | 8.27 µM | > 25 µM | 11.1 µM | > 25 µM | 7.91 µM | 24.3 µM | > 18.5 µM | > 25 µM | 10.6 µM | > 25 µM | 10.5 µM | > 25 µM
11 | CC(C)Cc1ccc(C(C)C(=O)NCc2ccc(Cn3c(=O)sn(CCCI)c3=O)cc2)cc1 (centres undefined) | 0.429 µM | 1.34 µM | 0.397 µM | 2.03 µM | 1.36 µM | 3.08 µM | 1.32 µM | 2.79 µM | 0.407 µM | 1.49 µM | 1.35 µM | 5.19 µM | 0.279 µM | > 100 µM | 0.571 µM | 1.81 µM
12 | CCOC(=O)c1cc(NS(=O)(=O)c2ccc(C)cc2)cc(C(=O)OCC)c1 | 52.5 µM | > 100 µM | 28 µM | > 100 µM | 37.5 µM | > 100 µM | 38.5 µM | > 100 µM | 39.1 µM | > 100 µM | 23.6 µM | > 100 µM | 37.2 µM | > 100 µM | 34.8 µM | > 100 µM
13 | O=C1c2cc(F)ccc2-c2c1c1ccc([N+](=O)[O-])cc1c(=O)n2CCCBr | 13.3 µM | 46.3 µM | 1.35 µM | > 100 µM | 4.56 µM | > 100 µM | 18.4 µM | 85.4 µM | 13.9 µM | > 100 µM | 4.37 µM | 41.3 µM | 15.6 µM | > 100 µM |  | 
14 | Cn1c(-c2c(N)n(Cc3ccc(F)cc3)c3nc(C#N)c(C#N)nc23)nc2ccccc21 | 3.48 µM | > 50 µM | 2.19 µM | > 50 µM | 2.21 µM | 25.2 µM | 1.3 µM | 4.08 µM | 2.51 µM | > 50 µM | 7.56 µM | 22.5 µM |  |  | 2.79 µM | 18.2 µM
15 | C=C1C(=O)C2=CC1CCC(=O)C1(C)CCC(OC(C)=O)C(C)(C)C1CC2O (centres undefined) |  | 10.4 µM |  | 3.84 µM |  | 4.64 µM |  | 8.62 µM |  | 5.38 µM |  | 24.9 µM |  |  |  | 9.33 µM
16 | Cc1ccsc1-c1ccc2c(c1)COC2(CCCN(C)C)c1ccc(F)cc1 (centres undefined) | 1.73 µM | 3.46 µM | 1.74 µM | 3.67 µM | 1.77 µM | 3.49 µM | 5.39 µM | 18.1 µM | 1.7 µM | 6.26 µM | 3.83 µM | 15.2 µM | 2.73 µM | 8.56 µM | 4.97 µM | 18.6 µM
